Measured values as given in the supplement of paper PMC4932681.

Tests used:
ZR-75-1 Tam2 [1] = test: relative IC50 (midpoint of fitted logistic curve, plateau may be below 50% inhibition; CellTiter-Glo viability); higher = less potent; details: 4-OH-tamoxifen in medium 1 µM; 72 h
Procedure: (§1)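 FIMM FO2B library drugs were plated at 5 concentrations spanning a 10,000-fold range in 384-well plates. Cells were incubated for 72 h at 37 °C and viability was read by CellTiter-Glo, normalised to DMSO (0% inhibition) and 100 µM benzethonium chloride (100% inhibition). IC50 values come from logistic dose-response fits (Breeze pipeline). Tamoxifen-resistant lines and the 'in 1µM tamoxifen' parental arms were tested in medium with 1 µM 4-OH-tamoxifen.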

BT-474 Tam2 [2] = test: as above; details: 4-OH-tamoxifen in medium 1 µM; 72 h
Procedure: as §1

T-47D [3] = test: as above; details: 72 h
Procedure: as §1

ZR-75-1 [4] = test: as above; details: 72 h
Procedure: as §1

BT-474 Tam1 [5] = test: as above; details: 4-OH-tamoxifen in medium 1 µM; 72 h
Procedure: as §1

ZR-75-1 Tam1 [6] = test: as above; details: 4-OH-tamoxifen in medium 1 µM; 72 h
Procedure: as §1

BT-474 [7] = test: as above; details: 72 h
Procedure: as §1

ZR-75-1 Tam2 [8] = test: drug sensitivity score (DSS) (DSS (dimensionless)); higher = more sensitive; extreme values may be limits of the assay; details: 4-OH-tamoxifen in medium 1 µM; 72 h
Procedure: (§2)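 FIMM FO2B library drugs were tested at 5 concentrations (10,000-fold range) for 72 h, with CellTiter-Glo viability normalised to DMSO and benzethonium chloride controls. The Drug Sensitivity Score (DSS) is computed from the fitted logistic dose-response curve (area-based; 0 = inactive). Resistant lines and the 'in 1µM tamoxifen' arms were tested in 1 µM 4-OH-tamoxifen.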

MCF-7 [9] = test: as above; details: 72 h
Procedure: as §2

BT-474 Tam2 [10] = test: as above; details: 4-OH-tamoxifen in medium 1 µM; 72 h
Procedure: as §2

T-47D [11] = test: as above; details: 72 h
Procedure: as §2

T-47D Tam1 = test: as above; details: 4-OH-tamoxifen in medium 1 µM; 72 h
Procedure: as §2

ZR-75-1 [12] = test: as above; details: 72 h
Procedure: as §2

BT-474 Tam1 [13] = test: as above; details: 4-OH-tamoxifen in medium 1 µM; 72 h
Procedure: as §2

T-47D Tam2 = test: as above; details: 4-OH-tamoxifen in medium 1 µM; 72 h
Procedure: as §2

ZR-75-1 Tam1 [14] = test: as above; details: 4-OH-tamoxifen in medium 1 µM; 72 h
Procedure: as §2

MCF-7 Tam1 = test: as above; details: 4-OH-tamoxifen in medium 1 µM; 72 h
Procedure: as §2

BT-474 [15] = test: as above; details: 72 h
Procedure: as §2

MCF-7 [16] = test: relative IC50 (midpoint of fitted logistic curve, plateau may be below 50% inhibition; CellTiter-Glo viability); higher = less potent; details: 72 h
Procedure: as §1

SMILES	relative IC50 (BT-474 Tam2 [2]) [nM]	relative IC50 (T-47D [3]; 4-OH-tamoxifen in medium 0 µM) [nM]	relative IC50 (T-47D [3]; 4-OH-tamoxifen in medium 1 µM) [nM]	relative IC50 (BT-474 Tam1 [5]) [nM]	relative IC50 (BT-474 [7]; 4-OH-tamoxifen in medium 0 µM) [nM]	relative IC50 (BT-474 [7]; 4-OH-tamoxifen in medium 1 µM) [nM]	relative IC50 (MCF-7 [16]; 4-OH-tamoxifen in medium 0 µM) [nM]	relative IC50 (MCF-7 [16]; 4-OH-tamoxifen in medium 1 µM) [nM]	relative IC50 (ZR-75-1 Tam2 [1]) [nM]	relative IC50 (ZR-75-1 [4]; 4-OH-tamoxifen in medium 0 µM) [nM]	relative IC50 (ZR-75-1 [4]; 4-OH-tamoxifen in medium 1 µM) [nM]	relative IC50 (ZR-75-1 Tam1 [6]) [nM]	drug sensitivity score (ZR-75-1 Tam2 [8])	drug sensitivity score (MCF-7 [9]; 4-OH-tamoxifen in medium 0 µM)	drug sensitivity score (MCF-7 [9]; 4-OH-tamoxifen in medium 1 µM)	drug sensitivity score (BT-474 Tam2 [10])	drug sensitivity score (T-47D [11]; 4-OH-tamoxifen in medium 0 µM)	drug sensitivity score (T-47D [11]; 4-OH-tamoxifen in medium 1 µM)	drug sensitivity score (T-47D Tam1)	drug sensitivity score (ZR-75-1 [12]; 4-OH-tamoxifen in medium 0 µM)	drug sensitivity score (ZR-75-1 [12]; 4-OH-tamoxifen in medium 1 µM)	drug sensitivity score (BT-474 Tam1 [13])	drug sensitivity score (T-47D Tam2)	drug sensitivity score (ZR-75-1 Tam1 [14])	drug sensitivity score (MCF-7 Tam1)	drug sensitivity score (BT-474 [15]; 4-OH-tamoxifen in medium 0 µM)	drug sensitivity score (BT-474 [15]; 4-OH-tamoxifen in medium 1 µM)
CC[C@H](CO)Nc1nc(NCc2ccccc2)c2ncn(C(C)C)c2n1 [Seliciclib (Roscovitine)]	> 10000	> 10000	> 10000	> 10000	> 10000	> 10000	–	–	> 10000	> 10000	> 10000	> 10000	0	0.816	0.217	0	0	0	4	0	0	0	0.682	0	0.0488	0	0
CO[C@H]1C[C@@H]2CC[C@@H](C)[C@@](O)(O2)C(=O)C(=O)N2CCCC[C@H]2C(=O)O[C@H]([C@H](C)C[C@@H]2CC[C@@H](OCCO)[C@H](OC)C2)CC(=O)[C@H](C)/C=C(\C)[C@@H](O)[C@@H](OC)C(=O)[C@H](C)C[C@H](C)/C=C/C=C/C=C/1C [Everolimus]	–	–	–	–	–	–	1.04	0.952	1.23	1.27	3.47	3.52	9.02	11.6	8.24	2.18	5.82	2.41	4.62	8.05	4.22	1.16	3.34	4.45	0.336	7.06	0.135
S=c1[nH]cnc2nc[nH]c12 [Mercaptopurine]	> 10000	> 10000	> 10000	> 10000	> 10000	–	–	–	–	1170	–	1270	1.17	0.509	2.88	0	0	0	0.0158	3.86	0	0	0	3.2	0.313	0	1.43

The next lines start with results.

relative IC50 (BT-474 Tam2 [2]) [nM]	relative IC50 (T-47D [3]; 4-OH-tamoxifen in medium 0 µM) [nM]	relative IC50 (T-47D [3]; 4-OH-tamoxifen in medium 1 µM) [nM]	relative IC50 (BT-474 Tam1 [5]) [nM]	relative IC50 (BT-474 [7]; 4-OH-tamoxifen in medium 0 µM) [nM]	relative IC50 (BT-474 [7]; 4-OH-tamoxifen in medium 1 µM) [nM]	relative IC50 (MCF-7 [16]; 4-OH-tamoxifen in medium 0 µM) [nM]	relative IC50 (MCF-7 [16]; 4-OH-tamoxifen in medium 1 µM) [nM]	SMILES	relative IC50 (ZR-75-1 Tam2 [1]) [nM]	relative IC50 (ZR-75-1 [4]; 4-OH-tamoxifen in medium 0 µM) [nM]	relative IC50 (ZR-75-1 [4]; 4-OH-tamoxifen in medium 1 µM) [nM]	relative IC50 (ZR-75-1 Tam1 [6]) [nM]	drug sensitivity score (ZR-75-1 Tam2 [8])	drug sensitivity score (MCF-7 [9]; 4-OH-tamoxifen in medium 0 µM)	drug sensitivity score (MCF-7 [9]; 4-OH-tamoxifen in medium 1 µM)	drug sensitivity score (BT-474 Tam2 [10])	drug sensitivity score (T-47D [11]; 4-OH-tamoxifen in medium 0 µM)	drug sensitivity score (T-47D [11]; 4-OH-tamoxifen in medium 1 µM)	drug sensitivity score (T-47D Tam1)	drug sensitivity score (ZR-75-1 [12]; 4-OH-tamoxifen in medium 0 µM)	drug sensitivity score (ZR-75-1 [12]; 4-OH-tamoxifen in medium 1 µM)	drug sensitivity score (BT-474 Tam1 [13])	drug sensitivity score (T-47D Tam2)	drug sensitivity score (ZR-75-1 Tam1 [14])	drug sensitivity score (MCF-7 Tam1)	drug sensitivity score (BT-474 [15]; 4-OH-tamoxifen in medium 0 µM)	drug sensitivity score (BT-474 [15]; 4-OH-tamoxifen in medium 1 µM)
–	–	–	314	> 1000	404	–	–	COc1cc2c(Oc3ccc(NC(=O)C4(C(=O)Nc5ccc(F)cc5)CC4)cc3F)ccnc2cc1OCCCN1CCOCC1 [Foretinib (Foretinib)]	–	> 1000	–	–	0.585	0.867	0.0297	0.0003	0.41	0.227	0.595	0	0	1.42	1.36	0	1.72	0	1.73
3910	–	–	3120	3570	3670	–	–	COc1cc2nccc(Oc3ccc(NC(=O)Nc4cc(C)on4)c(Cl)c3)c2cc1OC [Tivozanib  (AV-951)]	–	–	> 10000	> 10000	0	0.0979	0.0672	1.74	0.499	0.378	0.968	0.0461	0	4.02	0.444	0	0.0468	1.25	3.61
–	1820	3210	–	–	> 10000	–	–	CC(C)c1c(C(=O)Nc2ccccc2)c(-c2ccccc2)c(-c2ccc(F)cc2)n1CC[C@@H](O)C[C@@H](O)CC(=O)O [Atorvastatin]	1430	1170	1650	1720	3.56	0.619	1.69	2.17	2.75	1.73	3.38	4.64	2.87	0.517	0.823	3.76	0	0.471	0
1410	> 10000	> 10000	2790	> 10000	3130	–	1230	C=CC[C@@H]1/C=C(\C)C[C@H](C)C[C@H](OC)[C@H]2O[C@@](O)(C(=O)C(=O)N3CCCC[C@H]3C(=O)O[C@H](/C(C)=C/[C@@H]3CC[C@@H](O)[C@H](OC)C3)[C@H](C)[C@@H](O)CC1=O)[C@H](C)C[C@@H]2OC [Tacrolimus (FK 506)]	–	> 10000	–	–	0.01	0.766	3.51	2.96	0	0	2.72	0	0.622	2.73	0.788	0.336	1.18	0	1.97
